Laboratory results taken from US8598217B2, “Imidazole derivatives and their use as modulators of cyclin dependent kinases” (Astex Therapeutics Ltd., priority 2009, dated 2013).
Like-named read-outs stand apart in the source and are kept apart here.

Biological target: CDK4/cyclin D1 (Homo sapiens (Human), UniProt P11802)
Test: CDK4/cyclin D1 enzymatic activity assay (Protocol A, Lance TR-FRET)
Format: biochemical
Conditions: CDK4/cyclin D1, 175 nM pRb152, 3 μM ATP
Description: A 384-well microtiter Lance TR-FRET (time-resolved-fluorescence energy transfer) endpoint assay was used for CDK4/cyclin D1 kinase activity measurements. The same assay was used for IC50 determination of small molecule inhibitors. In general, the kinase reactions were carried out in 30 μL volumes in the reaction solution containing the following: 2 μL compound (in 20% DMSO), 18 uL CDK4/cyclin D1 in Assay Buffer (50 mM HEPES, pH 7.5, 5 mM MgCl2, 2 mM MnCl2, 1 mM DTT, 0.05% BSA, 0.02% Tween-20), 10 μL of the mixture of pRb152 and ATP. The final reaction mixture contains compound (inhibitor) with the concentration varying from […], 2% DMSO, 0.3 nM CDK4/cyclin D1, 175 nM pRb152, and 3 μM ATP (Amersham Pharmacia, Cat. No. 27-2056-01). All reactions were run at room temperature in 384-well white flat-bottom OptiPlates (Perkin Elmer, Cat. No. 6007290) for 60 min then were quenched by the addition of 10 μL of 120 mM EDTA. The signals were captured by the addition of 40 μL of the Detection Solution containing the following: Detection Buffer (50 mM HEPES, pH 7.5, 30 mM EDTA, 0.1% Triton x-100, 0.05% BSA), 70 ng/mL anti-phospho-pRb(S780) (Cell Signaling Technology, Cat. No. 9307S), 1 nM Lance Eu-W1024-Rabbit anti-IgG (Perkin Elmer, Cat. No. AD0082), and 20 nM SureLight™ Allophycocyanin-Streptavidin (Perkin Elmer, Cat. No. CR130-100). The resulted solutions were incubated at room temperature for 2 hours before read on the Evision Multilabel Reader (Perkin Elmer, Envision 2102-0010). Note: IC50<0.005 nM or IC50>10 μM indicates the true IC50 is out of detection range.
CDK4/cyclin D1 recombinant protein used in the enzymatic activity assay was prepared by coexpressing pDEST10-CDK4 (N-terminal His6) and pFastBacDual-GST-hCyclinD1 viruses in Sf21 cells. The overexpressed protein was purified by Ni-NTA affinity pull down to >80% pure by Sizing HPLC.

[1] = bound stated, read-out: IC50 values against CDK4
[2] = 60 min, room temperature, read-out: IC50 against CDK4 kinase

CDK4/cyclin D1, sequence (P11802 whole entry): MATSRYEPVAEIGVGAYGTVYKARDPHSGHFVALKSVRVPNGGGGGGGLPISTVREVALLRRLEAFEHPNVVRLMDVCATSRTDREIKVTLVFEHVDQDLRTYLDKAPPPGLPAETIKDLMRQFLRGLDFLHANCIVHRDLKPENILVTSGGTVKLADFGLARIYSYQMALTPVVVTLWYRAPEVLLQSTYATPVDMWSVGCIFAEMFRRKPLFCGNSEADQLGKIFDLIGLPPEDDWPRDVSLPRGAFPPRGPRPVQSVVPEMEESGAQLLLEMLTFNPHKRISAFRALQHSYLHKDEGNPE
CDK4/cyclin D1, sequence (P24385 whole entry partner): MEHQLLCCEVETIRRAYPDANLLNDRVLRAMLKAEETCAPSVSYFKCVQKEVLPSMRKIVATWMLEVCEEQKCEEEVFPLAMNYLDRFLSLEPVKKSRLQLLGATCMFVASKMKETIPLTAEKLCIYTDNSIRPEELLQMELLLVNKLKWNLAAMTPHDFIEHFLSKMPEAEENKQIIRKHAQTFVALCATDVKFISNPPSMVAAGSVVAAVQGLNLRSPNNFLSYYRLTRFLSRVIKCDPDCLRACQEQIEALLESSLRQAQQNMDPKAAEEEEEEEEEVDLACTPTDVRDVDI

Row | IC50 [1] | IC50 [2] | Compound
1 | < 10000 nM | – | COc1cccc(F)c1-c1cc(C(=O)c2nc3ccc(N4CCN(C)CC4)cc3[nH]2)ccn1 [Example 49, [2-(2-Fluoro-6-methoxy-phenyl)-pyridin-4-yl]-[6-(4-methyl-piperazin-1-yl)-1H-benzoimidazol-2-yl]-methanone]
2 | < 10000 nM | – | COc1cccc(F)c1-c1cc(C(=O)c2nc3ccc(N4CCC(N(C)C)CC4)cc3[nH]2)ccn1 [Example 50, [6-(4-Dimethylamino-piperidin-1-yl)-1H-benzoimidazol-2-yl]-[2-(2-fluoro-6-methoxy-phenyl)-pyridin-4-yl]-methanone]
3 | < 10000 nM | – | COc1ccc(F)c(F)c1-c1cc(C(=O)c2ncc[nH]2)ccn1 [Example 66, [2-(2,3-Difluoro-6-methoxy-phenyl)-pyridin-4-yl]-(1H-imidazol-2-yl)-methanone]
4 | < 10000 nM | – | COc1cccc(F)c1-c1cc(C(=O)c2nc3cc(CN4CCOCC4)ccc3[nH]2)ccn1 [Example 73, [2-(2-Fluoro-6-methoxy-phenyl)-pyridin-4-yl]-(5-morpholin-4-ylmethyl-1H-benzoimidazol-2-yl)-methanone]
5 | < 10000 nM | – | CN(C)Cc1cccc2[nH]c(C(=O)c3ccnc(-c4cncc5ccccc45)c3)nc12 [Example 79A, (4-Dimethylaminomethyl-1H-benzoimidazol-2-yl)-(2-isoquinolin-4-yl-pyridin-4-yl)-methanone]
6 | < 10000 nM | – | COc1ccc(F)c(F)c1-c1cc(C(=O)c2nc3c(CN(C)C)cccc3[nH]2)ccn1 [Example 79B, [2-(2,3-Difluoro-6-methoxy-phenyl)-pyridin-4-yl]-(4-dimethylaminomethyl-1H-benzoimidazol-2-yl)-methanone]
7 | – | 57 nM | CN(C)Cc1ccc2nc(C(=O)c3ccnc(-c4cncc5ccccc45)c3)[nH]c2c1 [Example 84, (6-Dimethylaminomethyl-1H-benzoimidazol-2-yl)-(2-isoquinolin-4-yl-pyridin-4-yl)-methanone]
8 | – | 27 nM | CN1CCN(Cc2ccc3[nH]c(C(=O)c4ccnc(-c5cncc6ccccc56)c4)nc3c2)CC1 [Example 86, (2-Isoquinolin-4-yl-pyridin-4-yl)-[5-(4-methyl-piperazin-1-ylmethyl)-1H-benzoimidazol-2-yl]-methanone]
9 | – | 4 nM | CN(C)C1CCN(c2ccc3[nH]c(C(=O)c4ccnc(-c5cncc6ccccc56)c4)nc3c2)CC1 [Example 89, [5-(4-Dimethylamino-piperidin-1-yl)-1H-benzoimidazol-2-yl]-(2-isoquinolin-4-yl-pyridin-4-yl)-methanone]
10 | < 10000 nM | 33 nM | O=C(c1ccnc(-c2cncc3ccccc23)c1)c1nc2cc(OCC(O)CO)ccc2[nH]1 (centres unmarked) [Example 98, [5-(2,3-Dihydroxy-propoxy)-1H-benzoimidazol-2-yl]-(2-isoquinolin-4-yl-pyridin-4-yl)-methanone]
11 | < 10000 nM | 26 nM | CN1CCC(NC(=O)c2ccc3nc(C(=O)c4ccnc(-c5cncc6ccccc56)c4)[nH]c3c2)CC1 [Example 99, 2-(2-Isoquinolin-4-yl-pyridine-4-carbonyl)-3H-benzoimidazole-5-carboxylic acid (1-methyl-piperidin-4-yl)-amide]
12 | < 10000 nM | – | CCNCc1cncc(-c2cc(C(=O)c3nc4cc(OC)c(OC)cc4[nH]3)ccc2C#N)c1 [Example 101, 4-(5,6-Dimethoxy-1H-benzoimidazole-2-carbonyl)-2-(5-ethylaminomethyl-pyridin-3-yl)-benzonitrile]
13 | < 10000 nM | 60 nM | COc1ccc(F)c(F)c1-c1cc(C(=O)c2nc3cc(N4CCC(N(C)C)CC4)ccc3[nH]2)ccn1 [Example 103, [2-(2,3-Difluoro-6-methoxy-phenyl)-pyridin-4-yl]-[5-(4-dimethylamino-piperidin-1-yl)-1H-benzoimidazol-2-yl]-methanone]
14 | < 10000 nM | – | Cc1cc(F)ncc1-c1cc(C(=O)c2nc3ccc(N4CCC(N(C)C)CC4)cc3[nH]2)ccn1 [Example 119, [6-(4-Dimethylamino-piperidin-1-yl)-1H-benzoimidazol-2-yl]-(6′-fluoro-4′-methyl-[2,3′]bipyridinyl-4-yl)-methanone]
15 | < 10000 nM | – | CNS(=O)(=O)c1ccccc1-c1cc(C(=O)c2nc3ccc(N4CCC(N(C)C)CC4)cc3[nH]2)ccn1 [Example 120, 2-{4-[6-(4-Dimethylamino-piperidin-1-yl)-1H-benzoimidazole-2-carbonyl]-pyridin-2-yl}-N-methyl-benzenesulfonamide]
16 | < 10000 nM | – | Cc1n[nH]c(C)c1-c1cc(C(=O)c2nc3ccc(N4CCC(N(C)C)CC4)cc3[nH]2)ccn1 [Example 129, [6-(4-Dimethylamino-piperidin-1-yl)-1H-benzoimidazol-2-yl]-[2-(3,5-dimethyl-1H-pyrazol-4-yl)-pyridin-4-yl]-methanone]
17 | < 10000 nM | – | CN(C)C1CCN(c2ncc3nc(C(=O)c4ccnc(-c5cncc6ccccc56)c4)[nH]c3n2)CC1 [Example 133, [2-(4-Dimethylamino-piperidin-1-yl)-9H-purin-8-yl]-(2-isoquinolin-4-yl-pyridin-4-yl)-methanone]
18 | < 10000 nM | 12 nM | CN(C)C1CCN(c2ccc3nc(C(=O)c4ccnc(-c5cncc6ccccc56)c4)[nH]c3n2)CC1 [Example 135, [5-(4-Dimethylamino-piperidin-1-yl)-3H-imidazo[4,5-b]pyridin-2-yl]-(2-isoquinolin-4-yl-pyridin-4-yl)-methanone]
19 | – | 4 nM | CN(C)C1CCN(c2ccc3nc(C(=O)c4ccc(C#N)c(-c5cncc6[nH]ccc56)c4)[nH]c3n2)CC1 [Example 140, 4-[5-(4-Dimethylamino-piperidin-1-yl)-3H-imidazo[4,5-b]pyridine-2-carbonyl]-2-(1H-pyrrolo[2,3-c]pyridin-4-yl)-benzonitrile]
20 | – | 67 nM | COc1ccc(F)c(F)c1-c1cc(C(=O)c2nc3ccc(N4CCC(N(C)C)CC4)nc3[nH]2)ccn1 [Example 148, [5-(4-dimethylamino-piperidin-1-yl)-3H-imidazo[4,5-b]pyridin-2-yl]-[2-(2,3-difloro-6-methoxy-phenyl)-pyridin-4-yl]-methanone]
21 | < 10000 nM | – | COc1ccc(F)c(F)c1-c1cncc(C(=O)c2nc3cc(CN(C)C)ccc3[nH]2)c1 [Example 159, [5-(2,3-Difluoro-6-methoxy-phenyl)-pyridin-3-yl]-(5-dimethylaminomethyl-1H-benzoimidazol-2-yl)-methanone]
22 | < 10000 nM | – | Cc1nn(C)c(C)c1-c1cc(C(=O)c2nc3ccc(OC4CCNC4)nc3[nH]2)ccc1C#N (centres unmarked) [Example 160, 4-[5-(Pyrrolidin-3-yloxy)-3H-imidazo[4,5-b]pyridine-2-carbonyl]-2-(1,3,5-trimethyl-1H-pyrazol-4-yl)-benzonitrile]
23 | – | 14 nM | O=C(c1ccnc(-c2cncc3ccccc23)c1)c1nc2ccc(N3CCCNCC3)nc2[nH]1 [Example 163, (5-[1,4]Diazepan-1-yl-3H-imidazo[4,5-b]pyridine-2-yl)-(2-isoquinolin-4-yl-pyridin-4-yl)-methanone]
24 | – | 24 nM | O=C(c1ccnc(-c2cncc3ccccc23)c1)c1nc2ccc(N3CCNCC3)nc2[nH]1 [Example 164]
25 | – | 3 nM | CN(C)C1CCN(c2ccc3nc(C(=O)c4ccc(C#N)c(-c5cncc6ccccc56)c4)[nH]c3n2)CC1 [Example 165, 4-[5-(4-Dimethylamino-piperidin-1-yl)-3H-imidazo[4,5-b]pyridine-2-carbonyl]-2-isoquinolin-4-yl-benzonitrile]
